Assays:
randomized patients = experiment: Listed Causes of Death from Efficacy Data Set (by randomized treatment); format: in vivo; conditions: Ticagrelor 90 mg bd N = 9333; Clopidcgrel 75 mg cd N = 9291
Excerpt: Causes of death were similar between treatment groups. The most common cause of death was myocardial infarction occurring in about 1% of randomized patients. Sudden death, heart failure, other vascular events and stroke were among the more common causes of death.

[1] = tested on: individuals undergoing coronary stent implantation for therapy of Acute Coronary Syndrome (ASC); experiment: large randomized study, primary end point (death from vascular causes, MI or stroke); format: in vivo

What does the source list for COC(=O)[C@H](c1ccccc1Cl)N1CCc2sccc2C1 [clopidogrel]?
Cause of death: Aortic dissection, number (randomized patients): 2; Cause of death: Aortic dissection, percent (randomized patients): (0.0%); Cause of death: Arterial embolism, number (randomized patients): 2; Cause of death: Arterial embolism, percent (randomized patients): (0.0%); Cause of death: Cancer, number (randomized patients): 17; Cause of death: Cancer, percent (randomized patients): (0.2%); Cause of death: Cardiac arrhythmia, number (randomized patients): 29; Cause of death: Cardiac arrhythmia, percent (randomized patients): (0.3%); Cause of death: Death from bleeding (not related to trauma), number (randomized patients): 15; Cause of death: Death from bleeding (not related to trauma), percent (randomized patients): (0.2%); Cause of death: Endocarditis, number (randomized patients): 0; Cause of death: Endocarditis, percent (randomized patients): (0.0%); Cause of death: Heart failure, number (randomized patients): 62; Cause of death: Heart failure, percent (randomized patients): (0.7%); Cause of death: Liver failure, number (randomized patients): 1; Cause of death: Liver failure, percent (randomized patients): (0.0%); Cause of death: Multiorgan failure, number (randomized patients): 14; Cause of death: Multiorgan failure, percent (randomized patients): (0.2%); Cause of death: Myocardial infarction, number (randomized patients): 89; Cause of death: Myocardial infarction, percent (randomized patients): (0.9%); Cause of death: Other coronary artery disease, number (randomized patients): 4; Cause of death: Other coronary artery disease, percent (randomized patients): (0.0%); Cause of death: Other non-vascular cause, number (randomized patients): 11; Cause of death: Other non-vascular cause, percent (randomized patients): (0.1%); Cause of death: Other vascular cause, number (randomized patients): 55; Cause of death: Other vascular cause, percent (randomized patients): (0.6%); Cause of death: Pneumonia, number (randomized patients): 8; Cause of death: Pneumonia, percent (randomized patients): (0.1%); Cause of death: Pulmonary embolism, number (randomized patients): 8; Cause of death: Pulmonary embolism, percent (randomized patients): (0.1%); Cause of death: Renal failure, number (randomized patients): 5; Cause of death: Renal failure, percent (randomized patients): (0.1%); Cause of death: Respiratory failure, number (randomized patients): 12; Cause of death: Respiratory failure, percent (randomized patients): (0.1%); Cause of death: Ruptured aortic aneurysm, number (randomized patients): 0; Cause of death: Ruptured aortic aneurysm, percent (randomized patients): (0.0%); Cause of death: Sepsis, number (randomized patients): 23; Cause of death: Sepsis, percent (randomized patients): (0.2%); Cause of death: Stroke, number (randomized patients): 18; Cause of death: Stroke, percent (randomized patients): (0.2%); Cause of death: Sudden death, number (randomized patients): 77; Cause of death: Sudden death, percent (randomized patients): (0.8%); Cause of death: Suicida, number (randomized patients): 1; Cause of death: Suicida, percent (randomized patients): (0.0%); Cause of death: Trauma, number (randomized patients): 1; Cause of death: Trauma, percent (randomized patients): (0.0%); Cause of death: Unknown, number (randomized patients): 58; Cause of death: Unknown, percent (randomized patients): (0.6%); Cause of death: Unstable angina, number (randomized patients): 8; Cause of death: Unstable angina, percent (randomized patients): (0.1%); Cause of death: Valvular disease, number (randomized patients): 1; Cause of death: Valvular disease, percent (randomized patients): (0.0%); Cause of death: Vascular death, sub-classification missing, number (randomized patients): 1; Cause of death: Vascular death, sub-classification missing, percent (randomized patients): (0.0%); primary end point: first event of death from vascular causes, myocardial infarction (MI) or stroke, occurred in % of patients [1]: 11.7%

With CCCSc1nc(N[C@@H]2C[C@H]2c2ccc(F)c(F)c2)c2nnn([C@@H]3C[C@H](OCCO)[C@@H](O)[C@H]3O)c2n1 [Ticagrelor, (1S,2S,3R,5S)-3-[7-[(1R,2S)-2-(3,4-Difluorophenyl)cyclopropylamino]-5-(propylthio)-3H-[1,2,3]triazolo[4,5-d]pyrimidin-3-yl]-5-(2-hydroxyethoxy)cyclopentane-1,2-diol] as the compound, how does the “Cause of death: Aortic dissection, number” value (randomized patients) read?
The value was 1.

What about the “Cause of death: Aortic dissection, percent” value (randomized patients) of the same compound?
The value was “(0.0%)”.

What about the “Cause of death: Arterial embolism, number” value (randomized patients) of the same compound?
The value was 0.

What about the “Cause of death: Arterial embolism, percent” value (randomized patients) of the same compound?
The value was “(0.0%)”.

What about the “Cause of death: Cancer, number” value (randomized patients) of the same compound?
The value was 14.

And the “Cause of death: Cancer, percent” value (randomized patients)?
The value was “(0.2%)”.

What about the “Cause of death: Cardiac arrhythmia, number” value (randomized patients) of the same compound?
The value was 20.

What about the “Cause of death: Cardiac arrhythmia, percent” value (randomized patients) of the same compound?
Its value is “(0.2%)”.

What about the “Cause of death: Death from bleeding (not related to trauma), number” value (randomized patients) of the same compound?
Its value is 13.

And the “Cause of death: Death from bleeding (not related to trauma), percent” value (randomized patients)?
Its value is “(0.1%)”.

What about the “Cause of death: Endocarditis, number” value (randomized patients) of the same compound?
Its value is 0.

And the “Cause of death: Endocarditis, percent” value (randomized patients)?
The value was “(0.0%)”.

And the “Cause of death: Heart failure, number” value (randomized patients)?
Its value is 51.

And the “Cause of death: Heart failure, percent” value (randomized patients)?
The value was “(0.5%)”.

And the “Cause of death: Liver failure, number” value (randomized patients)?
The value was 0.

What about the “Cause of death: Liver failure, percent” value (randomized patients) of the same compound?
The value was “(0.0%)”.

What about the “Cause of death: Multiorgan failure, number” value (randomized patients) of the same compound?
The value was 9.

What about the “Cause of death: Multiorgan failure, percent” value (randomized patients) of the same compound?
Its value is “(0.1%)”.

What about the “Cause of death: Myocardial infarction, number” value (randomized patients) of the same compound?
Its value is 89.

And the “Cause of death: Myocardial infarction, percent” value (randomized patients)?
The value was “(1.0%)”.

And the “Cause of death: Other coronary artery disease, number” value (randomized patients)?
The value was 4.

What about the “Cause of death: Other coronary artery disease, percent” value (randomized patients) of the same compound?
Its value is “(0.0%)”.

What about the “Cause of death: Other non-vascular cause, number” value (randomized patients) of the same compound?
Its value is 8.

And the “Cause of death: Other non-vascular cause, percent” value (randomized patients)?
Its value is “(0.1%)”.

And the “Cause of death: Other vascular cause, number” value (randomized patients)?
The value was 44.

What about the “Cause of death: Other vascular cause, percent” value (randomized patients) of the same compound?
Its value is “(0.5%)”.

And the “Cause of death: Pneumonia, number” value (randomized patients)?
The value was 10.

And the “Cause of death: Pneumonia, percent” value (randomized patients)?
Its value is “(0.1%)”.

And the “Cause of death: Pulmonary embolism, number” value (randomized patients)?
Its value is 3.

What about the “Cause of death: Pulmonary embolism, percent” value (randomized patients) of the same compound?
The value was “(0.0%)”.

And the “Cause of death: Renal failure, number” value (randomized patients)?
The value was 2.

What about the “Cause of death: Renal failure, percent” value (randomized patients) of the same compound?
Its value is “(0.0%)”.

And the “Cause of death: Respiratory failure, number” value (randomized patients)?
The value was 13.

What about the “Cause of death: Respiratory failure, percent” value (randomized patients) of the same compound?
The value was “(0.1%)”.

What about the “Cause of death: Ruptured aortic aneurysm, number” value (randomized patients) of the same compound?
The value was 1.

And the “Cause of death: Ruptured aortic aneurysm, percent” value (randomized patients)?
Its value is “(0.0%)”.

And the “Cause of death: Sepsis, number” value (randomized patients)?
The value was 7.

What about the “Cause of death: Sepsis, percent” value (randomized patients) of the same compound?
Its value is “(0.1%)”.

What about the “Cause of death: Stroke, number” value (randomized patients) of the same compound?
Its value is 20.

And the “Cause of death: Stroke, percent” value (randomized patients)?
Its value is “(0.2%)”.

And the “Cause of death: Sudden death, number” value (randomized patients)?
The value was 60.

What about the “Cause of death: Sudden death, percent” value (randomized patients) of the same compound?
The value was “(0.6%)”.

And the “Cause of death: Suicida, number” value (randomized patients)?
Its value is 1.

What about the “Cause of death: Suicida, percent” value (randomized patients) of the same compound?
Its value is “(0.0%)”.

And the “Cause of death: Trauma, number” value (randomized patients)?
Its value is 3.

And the “Cause of death: Trauma, percent” value (randomized patients)?
The value was “(0.0%)”.

And the “Cause of death: Unknown, number” value (randomized patients)?
Its value is 39.

And the “Cause of death: Unknown, percent” value (randomized patients)?
Its value is “(0.4%)”.

And the “Cause of death: Unstable angina, number” value (randomized patients)?
Its value is 7.

And the “Cause of death: Unstable angina, percent” value (randomized patients)?
The value was “(0.1%)”.

What about the “Cause of death: Valvular disease, number” value (randomized patients) of the same compound?
The value was 0.

What about the “Cause of death: Valvular disease, percent” value (randomized patients) of the same compound?
Its value is “(0.0%)”.

What about the “Cause of death: Vascular death, sub-classification missing, number” value (randomized patients) of the same compound?
Its value is 0.

And the “Cause of death: Vascular death, sub-classification missing, percent” value (randomized patients)?
Its value is “(0.0%)”.

Source: patent US20110144049A1, “Treating Cardiac Arrhythmias, Heart Failure, Peripheral Artery Disease and Stroke with Cyclopentyl-Triazolo-Pyrimidine or Derivative Thereof” (priority 2009, published 2011)
